From patent US7166299B2, “Preparation of aqueous clear solution dosage forms with bile acids” (priority 1998, dated 2007)
Converted amounts (≈) assume the structure as drawn. “And” between values parts separate entries of the source, which are not always exact repeats. Identical values can stand only once.

What was measured:
[1] = Solution stability test (HPLC) of mixed bile acids with maltodextrin in aqueous solution, Example II; type: physicochemical; details: Table 2: pH 1, 50° C.
Protocol: (§1) The stability of dosage formulations of the invention were evaluated by measuring the concentration of the relevant bile acid over time in preparations comprising soluble bile acid, a high molecular weight aqueous soluble starch conversion product, and water at various pH and temperature levels. The retention time of each bile acid may be adjusted as needed to permit individual analysis each bile acid present in a complex samples, i.e. a sample having a plurality of bile acids.
(§2) The stability tests were conducted on three different aqueous solution systems: […].
(§3) The stability tests were performed with HPLC and microscope light at various pH conditions under the normal and accelerated conditions. Accelerated conditions for testing pharmaceutical compositions have been described (Remington, The Science and Practice of Pharmacy, 19th ed., p. 640). […] Thus, the formulations of the examples are suitable for preparing a commercial liquid dosage form. […] Some formulations remain stable for over 2 years.
(§4) For the solution stability test for each bile acid, HPLC was used to measure the concentration of the relevant soluble bile acid under the following conditions: the elution solvent of 0.02 M KH2PO4:acetonitrile in a ratio of 55:45, with a pH of 3.01, the flow rate was 0.8 mL/min., the injection volume was 20 μL, wave length for detection was 195 nm. In the tables, the concentration of the indicated bile acid salt for each of the three numbered trials and the average thereof is reported on each line. The percentage indicates the relative concentration of the bile acid salt after incubation for a certain amount of time in comparison with the initial concentration.
Into the resulting clear solution, maltodextrin was added with agitating at room temperature. Purified water was added to adjust the total volume to be 100 mL.

[2] = Solution stability test (HPLC) of single bile acid with maltodextrin in aqueous solution, Example I; type: physicochemical
Protocol: as §1, §2, §3, §4
100 mL of the aqueous solution in which one of the above bile acids is dissolved was prepared. Into the resulting clear solution, maltodextrin, a high molecular weight aqueous soluble starch conversion product, was added with agitation at room temperature. Purified water was added to adjust the total volume to be 100 mL. According to the instant invention and all examples, purified water is deionized, distilled deionized-distilled water, or a grade commonly used for pharmaceutical preparations.

[3] = cited from earlier work
[4] = Hematic levels of UDCA and glyco UDCA after oral administration of 200 mg UDCA aqueous solution to three healthy men (Example VI); type: in vivo, human; details: male, human, in vivo, po, 200 mg
Protocol: The aqueous solution dosage forms, according to this invention, containing 200 mg of ursodeoxycholic acid (UDCA), were prepared according to the method described in the above-described Example III and were administered to three healthy men having normal body weight after fasting. The hematic levels of UDCA and glyco UDCA were evaluated by means of well known chemical methods. After applying buffered serum to sep-pak column, methanol eluate was derivatized with phenacyl bromide at 80° C. for 45 minutes. These phenacyl bromide derivatives were dissolved in acetonitrile in preparation for HPLC. The experimental results of the absorption measured at certain times after dosage administration include the total absorption expressed as the area under the serum concentration-time curve (AUC: μg/mL×hours), the maximum hematic concentration (Cmax; μg/mL) that has been obtained, and the time (Tmax; hour) in which said maximum concentration has been obtained.
The experimental pharmacokinetic tests of the aqueous solution dosage forms according to this invention carried out on men show substantial improvement in AUC, Cmax and Tmax in comparison with the best results from any dosage forms known presently.
Table 4A and Table 4B show plasma concentration of UDCA and GUDCA measured in 3 men over time following on oral administration of the UDCA and GUDCA containing formulations according to Example VI and comparison of results against results of others employing different pharmaceutical formulations of UDCA.

[5] = Table 1B: pH 10, 50° C., day 20

## C[C@H](CCC(=O)O)[C@H]1CC[C@H]2[C@@H]3[C@H](O)C[C@@H]4C[C@H](O)CC[C@]4(C)[C@H]3C[C@H](O)[C@]12C [CA, cholic acid (3α, 7α, 12α-trihydroxy-5β-cholanic acid)]
[1]; day 0
  Percentage of day 0 concentration: 100.0%
[1]; day 4
  Percentage of day 0 concentration: 89.8%
  concentration by HPLC, Average: 0.457
  concentration by HPLC, trials #1-#3: 0.453 and 0.466
[1]; day 7
  Percentage of day 0 concentration: 86.9%
  concentration by HPLC, Average: 0.443
  concentration by HPLC, trials #1-#3: 0.434 and 0.426 and 0.468
[1]; day 20
  Percentage of day 0 concentration: 40.6%
  concentration by HPLC, Average: 0.207
  concentration by HPLC, trials #1-#3: 0.207 and 0.206
[2]; Table 1A: pH 7, 50° C., day 0
  Percentage of day 0 concentration: 100.0%
[2]; Table 1A: pH 7, 50° C., day 4
  Percentage of day 0 concentration: 95.4%
[2]; Table 1A: pH 7, 50° C., day 7
  Percentage of day 0 concentration: 100.8%
[2]; Table 1A: pH 7, 50° C., day 20
  Percentage of day 0 concentration: 103.0%
[2]; Table 1B: pH 10, 50° C., day 0
  Percentage of day 0 concentration: 100.0%
[2]; Table 1B: pH 10, 50° C., day 4
  Percentage of day 0 concentration: 99.1%
[2]; Table 1B: pH 10, 50° C., day 7
  Percentage of day 0 concentration: 103.6%
[2]; [5]
  Percentage of day 0 concentration: 106.4%

## C[C@H](CCC(=O)O)[C@H]1CC[C@H]2[C@@H]3[C@H](O)C[C@@H]4C[C@H](O)CC[C@]4(C)[C@H]3CC[C@]12C [CDCA, chenodeoxycholic acid (3α, 7α-dihydroxy-5β-cholanic acid)]
[3]
  solubility in the gastric juices and in aqueous hydrochloric acid solution: especially insoluble
  solubility in the gastric pH range: no longer soluble
  solubility in water: practically insoluble
[1]; day 0
  Percentage of day 0 concentration: 100.0%
  concentration by HPLC, Average: 0.534
  concentration by HPLC, trials #1-#3: 0.560 and 0.528 and 0.513
[1]; day 4
  Percentage of day 0 concentration: 94.7%
  concentration by HPLC, Average: 0.506
  concentration by HPLC, trials #1-#3: 0.488 and 0.510 and 0.519
[1]; day 7
  Percentage of day 0 concentration: 87.0%
  concentration by HPLC, Average: 0.464
  concentration by HPLC, trials #1-#3: 0.460 and 0.469 and 0.463
[1]; day 20
  Percentage of day 0 concentration: 30.2%
  concentration by HPLC, Average: 0.161
  concentration by HPLC, trials #1-#3: 0.169 and 0.154
[2]; Table 1A: pH 7, 50° C., day 0
  Percentage of day 0 concentration: 100.0%
  concentration by HPLC, Average: 0.547
  concentration by HPLC, trials #1-#3: 0.572 and 0.539 and 0.530
[2]; Table 1A: pH 7, 50° C., day 4
  Percentage of day 0 concentration: 101.6%
  concentration by HPLC, Average: 0.556
  concentration by HPLC, trials #1-#3: 0.540 and 0.552 and 0.576
[2]; Table 1A: pH 7, 50° C., day 7
  Percentage of day 0 concentration: 105.0%
  concentration by HPLC, Average: 0.574
  concentration by HPLC, trials #1-#3: 0.581 and 0.588 and 0.553
[2]; Table 1A: pH 7, 50° C., day 20
  Percentage of day 0 concentration: 105.7%
  concentration by HPLC, Average: 0.578
  concentration by HPLC, trials #1-#3: 0.565 and 0.608 and 0.560
[2]; Table 1B: pH 10, 50° C., day 0
  Percentage of day 0 concentration: 100.0%
  concentration by HPLC, Average: 0.522
  concentration by HPLC, trials #1-#3: 0.541 and 0.532 and 0.495
[2]; Table 1B: pH 10, 50° C., day 4
  Percentage of day 0 concentration: 100.0%
  concentration by HPLC, Average: 0.523
  concentration by HPLC, trials #1-#3: 0.511 and 0.519 and 0.538
[2]; Table 1B: pH 10, 50° C., day 7
  Percentage of day 0 concentration: 104.1%
  concentration by HPLC, Average: 0.544
  concentration by HPLC, trials #1-#3: 0.564 and 0.527 and 0.540
[2]; [5]
  Percentage of day 0 concentration: 107.4%
  concentration by HPLC, Average: 0.561
  concentration by HPLC, trials #1-#3: 0.556 and 0.569 and 0.558

## C[C@H](CCC(=O)O)[C@H]1CC[C@H]2[C@@H]3CC[C@@H]4C[C@H](O)CC[C@]4(C)[C@H]3C[C@H](O)[C@]12C [DCA, deoxycholic acid (3α, 12α-dihydroxy-5β-cholanic acid)]
[3]
  solubility in the gastric juices and in aqueous hydrochloric acid solution: especially insoluble
[3]; water
  solubility: 240 µg/mL (≈ 611 µM)

## C[C@H](CCC(=O)NCC(=O)O)[C@H]1CC[C@H]2[C@@H]3[C@@H](O)C[C@@H]4C[C@H](O)CC[C@]4(C)[C@H]3CC[C@]12C [GUDCA, glycoursodeoxycholic acid]
[4]; AUC, mean
  AUC: 4380 ± 1170 ng·h/mL
[4]; individual men #1-#3
  Cmax: 1920 ng/mL
[4]; mean
  Cmax: 1600 ng/mL
[4]; Tmax, mean
  Tmax: 3.5 ± 1.5 h

## C[C@H](CCC(=O)NCCS(=O)(=O)O)[C@H]1CC[C@H]2[C@@H]3[C@@H](O)C[C@@H]4C[C@H](O)CC[C@]4(C)[C@H]3CC[C@]12C [Tauroursodeoxycholic acid]
[3]
  solubility in hydrochloric acid solution: insoluble
  solubility in the gastric juices and in aqueous hydrochloric acid solution: especially insoluble

## C[C@H](CCC(=O)O)[C@H]1CC[C@H]2[C@@H]3C[C@H](O)[C@@H]4C[C@H](O)CC[C@]4(C)[C@H]3CC[C@]12C [hyodeoxycholic acid]
[3]
  solubility in the gastric juices and in aqueous hydrochloric acid solution: especially insoluble

## C[C@H](CCC(=O)NCCS(=O)(=O)O)[C@H]1CC[C@H]2[C@@H]3[C@H](O)C[C@@H]4C[C@H](O)CC[C@]4(C)[C@H]3CC[C@]12C [taurochenodeoxycholic acid]
[3]
  solubility in hydrochloric acid solution: insoluble
  solubility in the gastric juices and in aqueous hydrochloric acid solution: especially insoluble
